According to paper PMC5530816, “Anticancer metallohelices: nanomolar potency and high selectivity” (Chemical Science, 2015):

Columns and labels:
Assay type in all cases: cell-based
[1] = tested on: methicillin-resistant Staphylococcus aureus, USA300 JE2; experiment: MIC by broth dilution, MRSA; conditions: 20 h at 37 °C in Müller–Hinton broth
Experimental: (§1) The compounds were screened against cultures of the gram-positive bacterium methicillin-resistant Staphylococcus aureus, USA300 JE2 ([ref. 28 and 29]) (MRSA) and the gram-negative Escherichia coli, TOP10 (E. coli).[30] Kanamycin[30] was used as a positive control.
(§2) MIC values were established using a […] broth dilution method in cation-adjusted Müller–Hinton (MH) broth. 96-well plates (200 μL of 128 μg mL^–1, 64 μM) complex in MH broth, diluted 2^n μg mL^–1, inoculated with each bacterial strain (10^3 cfu mL^–1) were sealed and growth was monitored over 20 h at 37 °C with an iEMS 96-well plate reader (see ESI ^†).

Escherichia coli, TOP10 = experiment: MIC by broth dilution, E. coli; conditions: 20 h at 37 °C in Müller–Hinton broth
Experimental: as §1, §2

[2] = tested on: MDA-MB-468 (human epithelial breast adenocarcinoma); experiment: MTT chemosensitivity (IC50), MDA-MB-468 cells; conditions: 96 h exposure, triplicate, mean with standard deviation (esd)
Text: (§3) The activities of the new compounds and cisplatin were investigated in human tumour cell lines: (a) MDA-MB-468 (human epithelial breast adenocarcinoma);[24] (b) HCT116 p53^+/+ and (c) HCT116 p53^–/–.[25] The HCT116 p53^+/+ and HCT116 p53^–/– cancer cells are human colorectal cancer cell lines that are genetically identical (isogenic) except for the presence or absence of functional p53.[25] These were chosen to enable screening of the effects of p53 status as the loss of p53 function is common genetic event in patient tumours and is strongly associated with increased resistance to many conventional chemotherapeutic agents.[25],[26]
(§4) Compounds were added (100 μM to 5 nM in cell medium) for a further 96 h. 3-(4,5-Dimethylthiazol-[…])-2,5-diphenyl tetrazolium bromide solution (0.5 mg mL^–1, 20 μL per well) was added for a final 4 h. Upon completion all solutions were aspirated, dimethyl sulfoxide (150 μl) was added and absorbance (540 nm) was recorded with a Thermo Scientific Multiskan EX microplate photometer. […]
(§5) 0 ×10 3 c el l s / wel l and i nc u bat ed f or24 hat 37 ° C i n an at mos p h er e of5% C O2, p r i ort o d r u gexp os u r e. […]
(§6) C ell med ia (20 0 μ l) was ad d ed to the referenc e c ells and d iffering c onc entrations of d ru g s olu tion (20 0 μ l) were ad d ed to the remaining wells . […]

[3] = tested on: HCT116 p53^+/+ (human colon carcinoma, wild type p53); experiment: MTT chemosensitivity (IC50), HCT116 p53+/+ cells; conditions: 96 h exposure, triplicate, mean with standard deviation (esd)
Text: as §3, §4, §5, §6

[4] = tested on: HCT116 p53^–/– (human colon carcinoma, p53-null); experiment: MTT chemosensitivity (IC50), HCT116 p53-/- cells; conditions: 96 h exposure, triplicate, mean with standard deviation (esd)
Text: as §3, §4, §5, §6

[5] = approximate concentration in μM

Structure (SMILES)	MRSA MIC [1] [μg ml^–1]	MRSA MIC [1, 5] [µM]	E. coli MIC (Escherichia coli, TOP10) [μg ml^–1]	E. coli MIC (Escherichia coli, TOP10; [5]) [µM]	IC50 [2] [nM]	IC50 [3] [µM]	IC50 [4] [µM]
NC[C@H]1O[C@H](O[C@H]2[C@H](O)[C@@H](O[C@H]3O[C@H](CO)[C@@H](O)[C@H](N)[C@H]3O)[C@H](N)C[C@@H]2N)[C@H](O)[C@@H](O)[C@@H]1O [Kanamycin]	1	2	2	4	–	–	–
N.N.[Cl][Pt][Cl] [cisplatin]	–	–	–	–	2500 ± 500	3.5 ± 1.5	8.1 ± 1.8
